What all share (assay type): cell-based
Assay [1] deals with T1, CB1 receptor (Mus musculus, UniProt P47746).
T1 construct: gene Cnr1
The assay can be described thus: PathHunter β-arrestin CHO-K1 agonist assay (EC80).

Assay [2] addresses T2, cannabinoid receptor type 1 (CB1) (Homo sapiens, UniProt P21554).
T2 construct: gene CNR1
The experiment in a line: cAMP Hunter CHO-K1 CNR1 Gi antagonist assay vs […] CP55940.

Assay [3] concerns the target T1, CB1 receptor. The experiment in a line: PathHunter β-arrestin CHO-K1 antagonist assay vs CP55940.
Assay [4] addresses T2, cannabinoid receptor type 1 (CB1). The experiment in a line: cAMP Hunter CHO-K1 CNR1 Gi agonist assay (inhibition of forskolin-stimulated cAMP).

T1 sequence (P47746 whole entry): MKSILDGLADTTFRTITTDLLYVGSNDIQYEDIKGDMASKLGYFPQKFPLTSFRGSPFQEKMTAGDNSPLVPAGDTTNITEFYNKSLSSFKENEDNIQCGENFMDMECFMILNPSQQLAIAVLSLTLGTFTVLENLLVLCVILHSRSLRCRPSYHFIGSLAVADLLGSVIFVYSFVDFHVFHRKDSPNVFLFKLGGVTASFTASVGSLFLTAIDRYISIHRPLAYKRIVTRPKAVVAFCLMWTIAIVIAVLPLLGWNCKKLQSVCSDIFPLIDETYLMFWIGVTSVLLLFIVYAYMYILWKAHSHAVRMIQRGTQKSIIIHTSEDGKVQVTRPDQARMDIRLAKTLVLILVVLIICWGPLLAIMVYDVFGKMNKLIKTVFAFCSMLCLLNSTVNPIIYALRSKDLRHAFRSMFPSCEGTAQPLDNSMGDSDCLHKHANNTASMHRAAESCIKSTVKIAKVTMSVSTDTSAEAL
T2 sequence (P21554 whole entry): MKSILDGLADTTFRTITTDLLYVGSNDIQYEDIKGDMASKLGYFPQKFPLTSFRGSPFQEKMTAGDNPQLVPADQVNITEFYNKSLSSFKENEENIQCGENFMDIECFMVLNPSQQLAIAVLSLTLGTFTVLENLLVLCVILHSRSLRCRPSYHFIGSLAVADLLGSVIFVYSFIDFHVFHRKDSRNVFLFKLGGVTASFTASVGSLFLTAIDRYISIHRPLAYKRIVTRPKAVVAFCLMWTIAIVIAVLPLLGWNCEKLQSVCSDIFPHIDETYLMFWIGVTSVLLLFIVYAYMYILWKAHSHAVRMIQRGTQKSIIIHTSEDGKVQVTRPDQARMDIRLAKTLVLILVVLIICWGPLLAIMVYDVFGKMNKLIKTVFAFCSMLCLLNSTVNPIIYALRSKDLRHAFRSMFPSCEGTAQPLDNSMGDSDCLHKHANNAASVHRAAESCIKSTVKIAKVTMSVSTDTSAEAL

Consider `CCCCCCC(C)(C)c1ccc([C@@H]2C[C@H](O)CC[C@H]2CCCO)c(O)c1` (racemic) [CP55940], for which, in assay [1], the EC80 (in general, the point of the concentration-response curve where the effect stands at 80%) amounted to 11.5 nM. This lies in the double-digit nanomolar range.
Regarding `Cc1c(C(=O)NN2CCCCC2)nn(-c2ccc(Cl)cc2Cl)c1-c1ccc(I)cc1` [AM251], in assay [2], the “cAMP Hunter CHO-K1 CNR1 Gi antagonist assay vs 1.2 nM CP55940” value is “the antagonist/inverse agonist of CB1, AM251, completely diminished the agonist signal of CP55940”.
As to `Cc1c(C(=O)NN2CCOCC2)nn(-c2ccc(Cl)cc2Cl)c1-c1ccc(I)cc1` [AM281], the IC50 (as a rule, the point on the concentration scale where inhibition reaches its midpoint) in assay [3] is 40 nM.
As to `C=C(C)[C@@H]1CC[C@](C)(O)[C@H]2Oc3cc(CCCCC)cc(O)c3[C@@H]12` [S-CBE], it took 3720 nM to reach a half-maximal effect in assay [4] (EC50).

The values are drawn from paper PMC11275175, “Cannabielsoin (CBE), a CBD Oxidation Product, Is a Biased CB1 Agonist” (Biomedicines, 2024).
